molecular target: MAGL (Homo sapiens (Human), UniProt Q99685); assay: In vitro competitive activity-based protein profiling (human prefrontal cortex membrane fractions, FP-Rh probe), MAGL band; conditions: read-out: MAGL IC50 (μM) (human); human prefrontal cortex membrane fractions
Sequence (Q99685 whole entry): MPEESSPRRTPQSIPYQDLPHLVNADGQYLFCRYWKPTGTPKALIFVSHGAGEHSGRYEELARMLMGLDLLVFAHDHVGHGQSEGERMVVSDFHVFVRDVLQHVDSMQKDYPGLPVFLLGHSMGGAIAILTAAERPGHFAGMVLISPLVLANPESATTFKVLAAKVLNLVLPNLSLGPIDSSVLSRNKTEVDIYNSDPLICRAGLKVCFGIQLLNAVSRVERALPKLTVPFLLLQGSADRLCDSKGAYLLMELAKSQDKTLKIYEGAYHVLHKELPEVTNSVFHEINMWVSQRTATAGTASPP

| SMILES | IC50 |
| --- | --- |
| O=C(O)c1nn(C(=O)N2CCC3(CCN(Cc4cc(Cl)ccc4C(F)(F)F)C3)CC2)cc1Cl [Example 133, 4-chloro-1-(2-(5-chloro-2-(trifluoromethyl)-benzyl)-2,8-diazaspiro[4.5]-decane-8-carbonyl)-1H-pyrazole-3-carboxylic acid] | < 0.1 µM |
| O=C(O)c1nn(C(=O)N2CCC3(CC2)CN(Cc2cc(Cl)ccc2C(F)(F)F)C3)cc1Cl [Example 134, 4-chloro-1-(2-(5-chloro-2-(trifluoromethyl)-benzyl)-2,7-diazaspiro[3.5]-nonane-7-carbonyl)-1H-pyrazole-3-carboxylic acid] | < 0.1 µM |
| O=C(O)c1nn(C(=O)N2CC3CN(Cc4cc(Cl)ccc4Cl)CC3C2)cc1Cl (centres unmarked) [Example 136, 4-chloro-1-(5-(2,5-dichlorobenzyl)-octahydropyrrolo-[3,4-c]pyrrole-2-carbonyl)-1H-pyrazole-3-carboxylic acid] | < 0.1 µM |
| O=C(O)c1nn(C(=O)N2CCC3(CCN(Cc4ccc(N5CCCC5)cc4C(F)(F)F)C3)CC2)cc1Cl [Example 138, 4-chloro-1-(2-(4-(pyrrolidin-1-yl)-2-(trifluoromethyl)-benzyl)-2,8-diazaspiro[4.5]-decane-8-carbonyl)-1H-pyrazole-3-carboxylic acid] | < 0.1 µM |
| O=C(O)c1nn(C(=O)N2CC3CN(Cc4ccc(N5CCCC5)cc4C(F)(F)F)CC3C2)cc1Cl (centres unmarked) [Example 140, 4-chloro-1-(5-(4-(pyrrolidin-1-yl)-2-(trifluoromethyl)-benzyl)-octahydropyrrolo-[3,4-c]pyrrole-2-carbonyl)-1H-pyrazole-3-carboxylic acid] | < 0.1 µM |
| O=C(O)c1nn(C(=O)N2CCC3(CCN(Cc4cc(Cl)ccc4C(F)(F)F)C3)CC2)cc1C(F)(F)F [Example 148, 1-(2-(5-chloro-2-(trifluoromethyl)-benzyl)-2,8-diazaspiro[4.5]-decane-8-carbonyl)-4-(trifluoromethyl)-1H-pyrazole-3-carboxylic acid] | < 0.1 µM |
| O=C(O)c1ccn(C(=O)N2C[C@H]3C[C@H](OCc4cccc(C(F)(F)F)c4)C[C@H]3C2)n1 [Example 157, 1-(trans-5-((3-(trifluoromethyl)-benzyl)oxy)-octahydrocyclopenta-[c]pyrrole-2-carbonyl)-1H-pyrazole-3-carboxylic acid] | < 0.1 µM |
| Cc1c(CO[C@H]2C[C@@H]3CN(C(=O)n4ccc(C(=O)O)n4)C[C@@H]3C2)cccc1C(F)(F)F [Example 159, 1-(trans-5-((2-methyl-3-(trifluoromethyl)-benzyl)oxy)-octahydrocyclo-penta-nl [c]pyrrole-2-carbonyl)-1H-pyrazole-3-carboxylic acid] | < 0.1 µM |
| O=C(O)c1ccn(C(=O)N2CCC3(CCN(Cc4cc(Cl)cc(Cl)c4)C3)CC2)n1 [Example 162, 1-(2-(3,5-dichlorobenzyl)-2,8-diazaspiro[4.5]-decane-8-carbonyl)-1H-pyrazole-3-carboxylic acid] | < 0.1 µM |
| O=C(O)c1ccn(C(=O)N2C[C@H]3C[C@@H](Oc4cccc(-c5ccccc5)c4)C[C@H]3C2)n1 [Example 164, 1-(cis-5-([1,1′-biphenyl]-3-yloxy)-octahydrocyclopenta-[c]pyrrole-2-carbonyl)-1H-pyrazole-3-carboxylic acid] | < 0.1 µM |
| O=C(O)c1ccn(C(=O)N2CCN(Cc3ccc(N4CCCC4)cc3C(F)(F)F)CC2)n1 [Example 167, 1-(4-(4-(pyrrolidin-1-yl)-2-(trifluoromethyl)-benzyl)piperazine-1-carbonyl)-1H-pyrazole-3-carboxylic acid] | < 0.1 µM |
| O=C(O)c1ccn(C(=O)N2CCC3(CCN(Cc4ccc(-c5ccccc5)cc4C(F)(F)F)C3)CC2)n1 [Example 170, 1-(2-((3-(trifluoromethyl)-[1,1′-biphenyl]-4-yl)methyl)-2,8-diazaspiro[4.5]-decane-8-carbonyl)-1H-pyrazole-3-carboxylic acid] | < 0.1 µM |
| NC(=O)c1ccn(C(=O)N2CCN(Cc3cnccc3C(F)(F)F)CC2)n1 [Example 175, 1-(4-((4-(trifluoromethyl)-pyridin-3-yl)methyl)-piperazine-1-carbonyl)-1H-pyrazole-3-carboxamide] | < 0.1 µM |
| NC(=O)c1ccn(C(=O)N2CCC3(CCN(Cc4ccc(N5CCOCC5)cc4Cl)C3)CC2)n1 [Example 197, 1-(2-(2-chloro-4-morpholinobenzyl)-2,8-diazaspiro[4.5]-decane-8-carbonyl)-1H-pyrazole-3-carboxamide] | < 0.1 µM |
| NC(=O)c1ccn(C(=O)N2CCN(Cc3cccc(C(F)(F)F)c3N3CCOCC3)CC2)n1 [Example 199, 1-(4-(2-morpholino-3-(trifluoromethyl)-benzyl)piperazine-1-carbonyl)-1H-pyrazole-3-carboxamide] | < 0.1 µM |
| CN(Cc1cc(Cl)ccc1C(F)(F)F)CC1CCN(C(=O)n2ccc(C(=O)O)n2)CC1 [Example 209, 1-(4-(((5-chloro-2-(trifluoromethyl)-benzyl)-(methyl)amino)-methyl)piperidine-1-carbonyl)-1H-pyrazole-3-carboxylic acid] | < 0.1 µM |
| CC(C)(O)COc1cccc(CN2CCN(C(=O)n3ccc(C(=O)O)n3)CC2)c1Cl [Example 213, 1-(4-(2-chloro-3-(2-hydroxy-2-methylpropoxy)-benzyl)piperazine-1-carbonyl)-1H-pyrazole-3-carboxylic acid] | < 0.1 µM |
| C[C@@H]1CN(Cc2cccc(OCC(C)(C)O)c2Cl)CCN1C(=O)n1ccc(C(N)=O)n1 [Example 216, (R)-1-(4-(2-chloro-3-(2-hydroxy-2-methylpropoxy)-benzyl)-2-methylpiperazine-1-carbonyl)-1H-pyrazole-3-carboxamide] | < 0.1 µM |

More lines, now with the values ahead:

| IC50 | SMILES |
| --- | --- |
| < 0.1 µM | O=C(O)c1ccn(C(=O)N2CCC3(CCN(Cc4cc(Cl)ccc4C(F)(F)F)CC3)CC2)n1 [Example 217, 1-(9-(5-chloro-2-(trifluoromethyl)-benzyl)-3,9-diazaspiro[5.5]-undecane-3-carbonyl)-1H-pyrazole-3-carboxylic acid] |
| < 0.1 µM | O=C(O)c1ccn(C(=O)N2C[C@H]3C[C@H](Oc4cccc(C5CC5)c4)C[C@H]3C2)n1 [Example 219, 1-(trans-5-(3-cyclopropyl-phenoxy)-octahydrocyclopenta-[c]pyrrole-2-carbonyl)-1H-pyrazole-3-carboxylic acid] |
| < 0.1 µM | CC(C)c1cccc(O[C@H]2C[C@@H]3CN(C(=O)n4ccc(C(=O)O)n4)C[C@@H]3C2)c1 [Example 220, 1-(trans-5-(3-isopropylphenoxy)-octahydrocyclopenta-[c]pyrrole-2-carbonyl)-1H-pyrazole-3-carboxylic acid] |
| < 0.1 µM | CC(C)c1ccccc1O[C@H]1C[C@@H]2CN(C(=O)n3ccc(C(=O)O)n3)C[C@@H]2C1 [Example 221, 1-(trans-5-(2-isopropylphenoxy)-octahydrocyclopenta-[c]pyrrole-2-carbonyl)-1H-pyrazole-3-carboxylic acid] |
| < 0.1 µM | O=C(O)c1ccn(C(=O)N2C[C@H]3C[C@H](Oc4cc(F)cc(Cl)c4)C[C@H]3C2)n1 [Example 222, 1-(trans-5-(3-chloro-5-fluorophenoxy)-octahydrocyclopenta-[c]pyrrole-2-carbonyl)-1H-pyrazole-3-carboxylic acid] |
| < 0.1 µM | O=C(O)c1ccn(C(=O)N2C[C@H]3C[C@H](Oc4cc(Cl)cc(Cl)c4)C[C@H]3C2)n1 [Example 230, 1-(trans-5-(3,5-dichlorophenoxy)-octahydrocyclopenta-[c]pyrrole-2-carbonyl)-1H-pyrazole-3-carboxylic acid] |
| < 0.1 µM | O=C(O)c1ccn(C(=O)N2C[C@H]3C[C@H](Oc4cccc(C(F)(F)F)c4)C[C@H]3C2)n1 [Example 231, 1-(trans-5-(3-(trifluoromethyl)-phenoxy)-octahydrocyclopenta-[c]pyrrole-2-carbonyl)-1H-pyrazole-3-carboxylic acid] |
| < 0.1 µM | O=C(O)c1ccn(C(=O)N2C[C@H]3C[C@H](Oc4cccc(C5CCCC5)c4)C[C@H]3C2)n1 [Example 232, 1-(trans-5-(3-cyclopentyl-phenoxy)-octahydrocyclopenta-[c]pyrrole-2-carbonyl)-1H-pyrazole-3-carboxylic acid] |
| < 0.1 µM | O=C(O)c1ccn(C(=O)N2C[C@H]3C[C@H](Oc4cccc(N5CCCC5)c4)C[C@H]3C2)n1 [Example 234, 1-(trans-5-(3-(pyrrolidin-1-yl)phenoxy)-octahydrocyclopenta-[c]pyrrole-2-cathonyl)-1H-pyrazole-3-carboxylic acid] |
| < 0.1 µM | Cc1c(COC2CCN(C(=O)n3ccc(C(=O)O)n3)CC2)cccc1C(F)(F)F [Example 235, 1-(4-((2-methyl-3-(trifluoromethyl)-benzyl)oxy)-piperidine-1-carbonyl)-1H-pyrazole-3-carboxylic acid] |
| < 0.1 µM | Cc1ccc(COC2CCN(C(=O)n3ccc(C(=O)O)n3)CC2)cc1C(F)(F)F [Example 236, 1-(4-((4-methyl-3-(trifluoromethyl)-benzyl)oxy)-piperidine-1-carbonyl)-1H-pyrazole-3-carboxylic acid] |
| < 0.1 µM | O=C(O)c1ccn(C(=O)N2C[C@H]3C[C@H](Oc4ccccc4-c4ccccc4)C[C@H]3C2)n1 [Example 239, 1-(trans-5-([1,1′-biphenyl]-2-yloxy)-octahydrocyclopenta-[c]pyrrole-2-carbonyl)-1H-pyrazole-3-carboxylic acid] |
| < 0.1 µM | O=C(O)c1ccn(C(=O)N2C[C@H]3C[C@H](Oc4ccc(-c5ccccc5)cc4)C[C@H]3C2)n1 [Example 240, 1-(trans-5-([1,1′-biphenyl]-4-yloxy)-octahydrocyclopenta-[c]pyrrole-2-carbonyl)-1H-pyrazole-3-carboxylic acid] |
| < 0.1 µM | O=C(O)c1ccn(C(=O)N2C[C@H]3C[C@H](Oc4cccc(-c5cccnc5)c4)C[C@H]3C2)n1 [Example 241, 1-(trans-5-(3-(pyridin-3-yl)phenoxy)-octahydrocyclopenta-[c]pyrrole-2-carbonyl)-1H-pyrazole-3-carboxylic acid] |
